Tests used:
[1] = tested on: oxazolone-induced animal model of atopic dermatitis; assay: oxazolone-induced animal model of atopic dermatitis in mice; format: in vivo, mice (Balb/c)
Method: An animal model of atopic dermatitis was induced in mice (Balb/c) by the use of oxazolone. With the first sensitization day of oxazolone set as day 0, it was administered orally or transdermally starting on day 7 once a day. When the date of application of oxazolone and the date of administration of the drug were overlapped, the drug was administered about 6 hours after application of oxazolone.
For all mice, abdominal hair was removed one day before the first application of oxazolone. Then, 1% or 0.2% oxazolone was prepared by the use of a 4:1 ratio of acetone/corn oil, and sensitization and induction on the shaved mouse abdomen and both ears were performed with the same dose and schedule as represented in Table 1 and FIG. 1.
The test substances (the Test Compound and dexamethasone as a positive control) were prepared for each administration dose as represented in Table 2 below by the use of 0.5% methyl cellulose. In the case of the Test Compound, it was prepared in consideration of the HCl salt form. The test substances were dissolved in 0.5% methyl cellulose and then sonicated.
The test substances were prepared by dissolving them at the concentration of 0.1% (w/v) in a solution (PEG400:100% ethanol=1:1). 5 mL of PEG400 was added to 10 mg of the test substances and sonicated. When they were dissolved to some extent, 5 mL of 100% ethanol was added thereto and sonicated to dissolve them completely. In addition, the vehicle and the test substances were prepared fresh every day and used.

[2] = tested on: oxazolone-induced animal model of atopic dermatitis; assay: as above; format: in vivo, mice (Balb/c); conditions: Example 4, Table 3; for Therapeutic effect (Compared to disease-induced group): Ear thickness (Day 21 after administration): reduction in ear thickness
[3] = Example 4, Table 3, oral administration 1 mg/kg once a day, reduction in ear thickness
[4] = Example 4, Table 3, oral administration 1 mg/kg once a day, reduction in ear weight after autopsy
[5] = Example 4, Table 3, oral administration 1 mg/kg once a day, reduction in epidermal thickness
[6] = Example 4, Table 3, oral administration 1 mg/kg once a day, reduction in the blood level of IgE
[7] = Example 5 comparative experimentation, Table 4, oral administration 0.1 mg/kg
[8] = Example 5 comparative experimentation, Table 4, oral administration 0.3 mg/kg
[9] = Example 5 comparative experimentation, Table 4, oral administration 1 mg/kg
[10] = Example 5 comparative experimentation, Table 4, oral administration 1 mg/kg, blood level of IgE

## C[C@@H]1C[C@H]2[C@@H]3CCC4=CC(=O)C=C[C@]4(C)[C@@]3(F)[C@@H](O)C[C@]2(C)[C@@]1(O)C(=O)CO [Dexamethasone, dexamethasone, reference compound]
[1]; [3]
  Therapeutic effect (Compared to disease-induced group): Ear thickness (Day 21 after administration): 66%
[1]; [4]
  Therapeutic effect (Compared to disease-induced group): Ear weight (Day 21 after administration): 54%
[1]; [5]
  Therapeutic effect (Compared to disease-induced group): Epidermal thickness of ear tissue (Day 21 after administration): 55%
[1]; [6]
  Therapeutic effect (Compared to disease-induced group): IgE (Day 21 after administration): 12%

## CC(C)n1nc(Cl)c2cc(COc3ccc4c(c3)CCC(CN3CCC(C(=O)O)CC3)=C4Cl)ccc21 [Test Compound, 1-[1-Chloro-6-(3-chloro-1-isopropyl-1H-indazol-5-ylmethoxy)-3,4-dihydro-naphthalen-2-ylmethyl]-piperidine-4-carboxylic acid]
[1]; Example 4, Table 3, oral administration 0.1 mg/kg once a day, reduction in ear thickness
  Therapeutic effect (Compared to disease-induced group): Ear thickness (Day 21 after administration): 37%
[1]; Example 4, Table 3, oral administration 0.1 mg/kg once a day, reduction in ear weight after autopsy
  Therapeutic effect (Compared to disease-induced group): Ear weight (Day 21 after administration): −2%
[1]; Example 4, Table 3, oral administration 0.1 mg/kg once a day, reduction in epidermal thickness
  Therapeutic effect (Compared to disease-induced group): Epidermal thickness of ear tissue (Day 21 after administration): 25%
[1]; Example 4, Table 3, oral administration 0.1 mg/kg once a day, reduction in mast cell accumulation, ear tissue
  Therapeutic effect (Compared to disease-induced group): Mast cell accumulation (Day 21 after administration): 21%
[1]; Example 4, Table 3, oral administration 0.1 mg/kg once a day, reduction in the blood level of IgE
  Therapeutic effect (Compared to disease-induced group): IgE (Day 21 after administration): −56%
[1]; Example 4, Table 3, oral administration 0.3 mg/kg once a day, reduction in ear thickness
  Therapeutic effect (Compared to disease-induced group): Ear thickness (Day 21 after administration): 63%
[1]; Example 4, Table 3, oral administration 0.3 mg/kg once a day, reduction in ear weight after autopsy
  Therapeutic effect (Compared to disease-induced group): Ear weight (Day 21 after administration): 48%
[1]; Example 4, Table 3, oral administration 0.3 mg/kg once a day, reduction in epidermal thickness
  Therapeutic effect (Compared to disease-induced group): Epidermal thickness of ear tissue (Day 21 after administration): 56%
[1]; Example 4, Table 3, oral administration 0.3 mg/kg once a day, reduction in mast cell accumulation, ear tissue
  Therapeutic effect (Compared to disease-induced group): Mast cell accumulation (Day 21 after administration): 34%
[1]; Example 4, Table 3, oral administration 0.3 mg/kg once a day, reduction in the blood level of IgE
  Therapeutic effect (Compared to disease-induced group): IgE (Day 21 after administration): 38%
[1]; [3]
  Therapeutic effect (Compared to disease-induced group): Ear thickness (Day 21 after administration): 61%
[1]; [4]
  Therapeutic effect (Compared to disease-induced group): Ear weight (Day 21 after administration): 53%
[1]; [5]
  Therapeutic effect (Compared to disease-induced group): Epidermal thickness of ear tissue (Day 21 after administration): 61%
[1]; Example 4, Table 3, oral administration 1 mg/kg once a day, reduction in mast cell accumulation, ear tissue
  Therapeutic effect (Compared to disease-induced group): Mast cell accumulation (Day 21 after administration): 29%
[1]; [6]
  Therapeutic effect (Compared to disease-induced group): IgE (Day 21 after administration): 44%
[1]; Example 4, Table 3, topical administration 0.01% once a day, reduction in ear weight after autopsy
  Therapeutic effect (Compared to disease-induced group): Ear weight (Day 21 after administration): 65%
[1]; Example 4, Table 3, topical administration 0.01% once a day, reduction in mast cell accumulation, ear tissue
  Therapeutic effect (Compared to disease-induced group): Mast cell accumulation (Day 21 after administration): 42%
[1]; Example 4, Table 3, topical administration 0.01% once a day, reduction in the blood level of IgE
  Therapeutic effect (Compared to disease-induced group): IgE (Day 21 after administration): 43%
[1]; Example 4, Table 3, topical administration 0.03% once a day, reduction in ear weight after autopsy
  Therapeutic effect (Compared to disease-induced group): Ear weight (Day 21 after administration): 72%
[1]; Example 4, Table 3, topical administration 0.03% once a day, reduction in epidermal thickness
  Therapeutic effect (Compared to disease-induced group): Epidermal thickness of ear tissue (Day 21 after administration): 55%
[1]; Example 4, Table 3, topical administration 0.03% once a day, reduction in mast cell accumulation, ear tissue
  Therapeutic effect (Compared to disease-induced group): Mast cell accumulation (Day 21 after administration): 59%
[1]; Example 4, Table 3, topical administration 0.1% once a day, reduction in ear thickness
  Therapeutic effect (Compared to disease-induced group): Ear thickness (Day 21 after administration): 69%
[1]; Example 4, Table 3, topical administration 0.1% once a day, reduction in ear weight after autopsy
  Therapeutic effect (Compared to disease-induced group): Ear weight (Day 21 after administration): 69%
[1]; Example 4, Table 3, topical administration 0.1% once a day, reduction in epidermal thickness
  Therapeutic effect (Compared to disease-induced group): Epidermal thickness of ear tissue (Day 21 after administration): 58%
[1]; Example 4, Table 3, topical administration 0.1% once a day, reduction in mast cell accumulation, ear tissue
  Therapeutic effect (Compared to disease-induced group): Mast cell accumulation (Day 21 after administration): 70%
[1]; Example 4, Table 3, topical administration 0.1% once a day, reduction in the blood level of IgE
  Therapeutic effect (Compared to disease-induced group): IgE (Day 21 after administration): 71%
[1]; Example 4, summary of Table 3 and FIGS. 2 to 6
  overall effect in the oxazolone-induced animal model of atopic dermatitis versus positive control: superior effect in a dose-dependent manner compared to dexamethasone
[1]; Example 5, summary of Table 4 and FIG. 7
  overall effect in the animal model of atopic dermatitis versus comparative compound: equal or superior effects even at lower doses compared to the comparative compound, etrasimod
[1]; [7]
  Therapeutic effect (Compared to disease-induced group): Ear thickness (Day 21 after administration): 14%
  Therapeutic effect (Compared to disease-induced group): Ear weight (Day 21 after administration): 31%
  Therapeutic effect (Compared to disease-induced group): Epidermal thickness of ear tissue (Day 21 after administration): 21%
  Therapeutic effect (Compared to disease-induced group): Mast cell accumulation (Day 21 after administration): 27%
[1]; Example 5 comparative experimentation, Table 4, oral administration 0.1 mg/kg, blood level of IgE
  Therapeutic effect (Compared to disease-induced group): IgE (Day 21 after administration): 31%
[1]; [8]
  Therapeutic effect (Compared to disease-induced group): Ear thickness (Day 21 after administration): 29%
  Therapeutic effect (Compared to disease-induced group): Ear weight (Day 21 after administration): 55%
  Therapeutic effect (Compared to disease-induced group): Epidermal thickness of ear tissue (Day 21 after administration): 42%
  Therapeutic effect (Compared to disease-induced group): Mast cell accumulation (Day 21 after administration): 35%
[1]; Example 5 comparative experimentation, Table 4, oral administration 0.3 mg/kg, blood level of IgE
  Therapeutic effect (Compared to disease-induced group): IgE (Day 21 after administration): 46%
[1]; [9]
  Therapeutic effect (Compared to disease-induced group): Ear thickness (Day 21 after administration): 42%
  Therapeutic effect (Compared to disease-induced group): Ear weight (Day 21 after administration): 69%
  Therapeutic effect (Compared to disease-induced group): Epidermal thickness of ear tissue (Day 21 after administration): 44%
  Therapeutic effect (Compared to disease-induced group): Mast cell accumulation (Day 21 after administration): 43%
[1]; [10]
  Therapeutic effect (Compared to disease-induced group): IgE (Day 21 after administration): 72%
[2]; topical administration 0.01% once a day
  Therapeutic effect (Compared to disease-induced group): Ear thickness (Day 21 after administration): 63%
[2]; topical administration 0.01% once a day, reduction in epidermal thickness
  Therapeutic effect (Compared to disease-induced group): Epidermal thickness of ear tissue (Day 21 after administration): 26%
[2]; topical administration 0.03% once a day
  Therapeutic effect (Compared to disease-induced group): Ear thickness (Day 21 after administration): 71%
[2]; topical administration 0.03% once a day, reduction in the blood level of IgE
  Therapeutic effect (Compared to disease-induced group): IgE (Day 21 after administration): 74%

## O=C(O)C[C@H]1CCc2c1[nH]c1ccc(OCc3ccc(C4CCCC4)c(C(F)(F)F)c3)cc21 [etrasimod, 2-[(3R)-7-[[4-cyclopentyl-3-(trifluoromethyl)phenyl]methoxy]-1,2,3,4-tetrahydrocyclopenta[b]indol-3-yl] acetic acid, reference compound]
[1]; [9]
  Therapeutic effect (Compared to disease-induced group): Ear thickness (Day 21 after administration): 32%
  Therapeutic effect (Compared to disease-induced group): Ear weight (Day 21 after administration): 50%
  Therapeutic effect (Compared to disease-induced group): Epidermal thickness of ear tissue (Day 21 after administration): 36%
  Therapeutic effect (Compared to disease-induced group): Mast cell accumulation (Day 21 after administration): 28%
[1]; [10]
  Therapeutic effect (Compared to disease-induced group): IgE (Day 21 after administration): 47%

Reference: patent US20230330077A1, “USE OF SPHINGOSINE-1-PHOSPHATE RECEPTOR AGONIST” (LG CHEM, LTD., priority 2020, published 2023)
